The structures appear in SMILES notation.

The target in the assay is T1, Glycylpeptide N-tetradecanoyltransferase (Candida albicans (strain SC5314 / ATCC MYA-2876) (Yeast), UniProt P30418).
T1 sequence (P30418 whole entry): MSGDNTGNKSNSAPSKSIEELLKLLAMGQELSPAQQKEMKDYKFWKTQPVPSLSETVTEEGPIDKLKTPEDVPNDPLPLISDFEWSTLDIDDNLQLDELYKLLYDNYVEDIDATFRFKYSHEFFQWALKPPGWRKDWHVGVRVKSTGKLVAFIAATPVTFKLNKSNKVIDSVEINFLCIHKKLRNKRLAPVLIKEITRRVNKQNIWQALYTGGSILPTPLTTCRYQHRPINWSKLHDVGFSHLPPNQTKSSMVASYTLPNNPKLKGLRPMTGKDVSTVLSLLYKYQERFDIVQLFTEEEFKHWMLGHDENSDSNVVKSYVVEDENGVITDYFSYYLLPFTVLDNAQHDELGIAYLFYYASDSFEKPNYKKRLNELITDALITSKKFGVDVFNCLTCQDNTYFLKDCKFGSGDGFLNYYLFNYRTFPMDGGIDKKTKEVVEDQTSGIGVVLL
The assay can be described thus: Inhibition of candida N-myristoyltransferase.
Broadly, the IC50 is the concentration that gives 50% inhibition. In turn, `Cc1c(CCc2ccccc2)oc2cccc(OCCNCc3cccnc3)c12` showed an IC50 of 1200 nM. The same measure for `Cc1c(C(=O)Nc2ccccc2)oc2cccc(OCCNCc3cccnc3)c12`: 2200 nM; for `CCOC(=O)c1oc2cccc(OCCNCc3cccnc3)c2c1C1CC1`: 4400 nM. The same measure for `CCOC(=O)c1oc2cccc(OCCNCc3ccccc3)c2c1C`: 3300 nM. The molecule `CCOC(=O)c1oc2cccc(OCCNCc3cccnc3)c2c1C` yielded an IC50 of 100 nM. The same measure for `CCOC(=O)c1oc2cccc(OCCNCc3cccnc3)c2c1CC`: 10000 nM; for `CCOC(=O)c1oc2cccc(OCCNCc3cccnc3)c2c1C(C)C`: 83000 nM. The figure for `CCOC(=O)c1cc2c(OCCNCc3cccnc3)cccc2o1` is 79000 nM; for `CC(=O)c1nccn1-c1oc2cccc(OCCNCc3cccnc3)c2c1C` it is 1 nM.

For `COCc1ccc2oc(-c3oc4cccc(OCCNCc5cccnc5)c4c3C)cc2c1`, the IC50 was determined as 3 nM. In turn, `Cc1c(COc2ccccc2C#N)oc2cccc(OCCNCc3cccnc3)c12` had an IC50 of 17 nM. `Cc1c(COc2ccccc2)oc2cccc(OCCNCc3cccnc3)c12`: the IC50 was determined as 72 nM.

Consider `Cc1c(COc2cccc(F)c2)oc2cccc(OCCNCc3cccnc3)c12`, for which the IC50 was found to be 110 nM. `Cc1c(COc2ccccc2F)oc2cccc(OCCNCc3cccnc3)c12` returned an IC50 of 8.3 nM. The same measure for `Cc1c(COc2ccc(F)cc2F)oc2cccc(OCCNCc3cccnc3)c12`: 7.5 nM; for `Cc1c(COc2ccc(F)cc2)oc2cccc(OCCNCc3cccnc3)c12`: 5.2 nM; for `Cc1c(COc2ccc(Cl)cc2)oc2cccc(OCCNCc3cccnc3)c12`: 73 nM. The figure for `Cc1c(COc2ccc(C#N)cc2)oc2cccc(OCCNCc3cccnc3)c12` is 9.4 nM; for `CCOC(=O)c1oc2cccc(OCC(O)CNC(C)(C)C)c2c1C` (stereo not drawn) it is 1200 nM.

Consider `CCOC(=O)c1oc2cccc(OCCCCCNC(C)(C)C)c2c1C`, for which inhibition was half-maximal at 1500 nM (IC50). The figure for `CCOC(=O)c1oc2cccc(OCCCN3CCCCC3)c2c1C` is 1600 nM; for `CCOC(=O)c1oc2cccc(OCCCCNC(C)(C)C)c2c1C` it is 4400 nM; for `CCOC(=O)c1oc2cccc(OCCNC(C)(C)C)c2c1C` it is 50000 nM.

Values taken from ChEMBL document CHEMBL3045893, “QSAR analysis of N-myristoyltransferase inhibitors: antifungal activity of benzofurans” (Med Chem Res, 2009).
